Patent US6476036B1, “Sodium salt of 3-(4-cinnamyl-1-piperazinyl)-imino-methyl rifamycin SV” (priority 1998, dated 2002)
Where two headings read alike, the source gives them in different places.

Assays:
[1] = mice; cited from earlier work
[2] = test system: generalized tuberculosis; conditions: doses 10 mg/kg, after 60 days of treatment, test animals; cited from earlier work
[3] = rabbit, in vivo, 20 mg/kg
[4] = Non-model pharmacokinetics in mice; conditions: base 20 mg/kg
[5] = mouse, in vivo, 20 mg/kg
[6] = Solubility; format: physicochemical; conditions: water and organic solvents
Description: 4,62 g (0,005 g/moll) of 3-(4-cinnamyl-1-piperazinyl)-iminomethyl rifamycin SV is suspended in 40 ml methanol and 0,1 g sodium ascorbate dissolved in 1 ml water is added. To the obtained suspension 0,9 ml of 30% methanol solution of sodium methylate (equimolar quantity) is added. The suspension immediately turns into a solution because of the formation of the sodium salt. The reaction mixture is filtered to remove the unsolved sediment of sodium ascorbate, and the solvent is concentratrated in vacuum and dried to give the soduim salt as a dark-red solid powder. This product has high purity and the yield is practically quantitative.

[7] = rat, in vivo, 20 mg/kg
[8] = test system: Gram-positive microorganisms including aerobic, anaerobic and Mycobacterium (typical and atypical); assay: In vitro antibacterial activity; format: cell-based; conditions: in comparison with the initial compound T-9
[9] = Stability of water solutions; format: physicochemical

Row | Molecule | acute toxicity [1] [mg/kg] | therapeutic activity in generalized tuberculosis [2] | AUC [3] [µg·h/mL] | Cmax [3] [ng/mL] | T1/2 [3] [h] | Tmax [3] [h] | T1/2 ([4]; p.o) [h] | AUC [5] [µg·h/mL] | CL [5] [mL·min/kg] | Cmax [5] [ng/mL] | Tmax [5] [h] | solubility [6] | AUC [7] [µg·h/mL] | Cmax [7] [ng/mL] | T1/2 [7] [h] | Tmax [7] [h] | antibacterial activity in vitro [8] | T1/2 ([4]; i.v) [h] | stability of the obtained water solutions [9]
1 | CO[C@H]1/C=C/O[C@@]2(C)Oc3c(C)c(O)c4c(O)c(c(/C=N/N5CCN(C)CC5)c(O)c4c3C2=O)NC(=O)/C(C)=C\C=C\[C@H](C)[C@H](O)[C@@H](C)[C@@H](O)[C@@H](C)[C@H](OC(C)=O)[C@@H]1C [Rifampicin] | 1500 | – | – | – | – | – | – | – | – | – | – | – | – | – | – | – | – | – | –
2 | CO[C@H]1/C=C/O[C@@]2(C)Oc3c(C)c(O)c4c(O)c(c(/C=N/N5CCN(C/C=C/c6ccccc6)CC5)c(O)c4c3C2=O)NC(=O)/C(C)=C\C=C\[C@H](C)[C@H](O)[C@@H](C)[C@@H](O)[C@@H](C)[C@H](OC(C)=O)[C@@H]1C [T-9, 3-(4-cinnamyl-1-piperazinyl)-iminomethyl rifamycin SV, reference compound] | 4000 | full organ sterilization | 233 | 2750 | 56.63 | 2 | 33.70 | 735 | 0.092 | 12400 | 8 | unsoluble | 543 | 8200 | 21.18 | 6 | – | – | –
3 | sodium salt of 3-(4-cinnamyl-1-piperazinyl)-iminomethyl rifamycin SV [T-11] | – | – | 299 | 2710 | 28.04 | 2 | 38.02 | – | 0.092 | – | – | soluble in water, methanol, ethanol, acetone and unsoluble in isopropanol | 671 | 9200 | 20.04 | 2 | good antibacterial activity | 39.08 | good stability
